In ChEMBL document CHEMBL3525953, “In vitro cytochrome P450-mediated metabolism of exemestane” (Drug Metab Dispos, 2011):

Key:
Assay type in all cases: ADME
Liver microsome [1] = assay: Drug metabolism in human liver microsomes assessed as retention time at 50 uM after 10 mins by HPLC with UV analysis
Cytochrome P450 3A4 = Cytochrome P450 3A4 (Homo sapiens, UniProt P08684); assay: Drug metabolism assessed as human recombinant CYP3A4-mediated 6-Hydroxymethylexemestane formation rate per pmol of enzyme at 10 uM after 10 mins
Cytochrome P450 3A5 = Cytochrome P450 3A5 (Homo sapiens, UniProt P20815); assay: Drug metabolism assessed as human recombinant CYP3A5-mediated 6-Hydroxymethylexemestane formation rate per pmol of enzyme at 10 uM after 10 mins
Cytochrome P450 2C8 [2] = biological target: T1, Cytochrome P450 2C8 (Homo sapiens, UniProt P10632); assay: Drug metabolism assessed as human recombinant CYP2C8-mediated 6-Hydroxymethylexemestane formation rate per pmol of enzyme at 10 uM after 10 mins
T1 sequence (P10632 whole entry): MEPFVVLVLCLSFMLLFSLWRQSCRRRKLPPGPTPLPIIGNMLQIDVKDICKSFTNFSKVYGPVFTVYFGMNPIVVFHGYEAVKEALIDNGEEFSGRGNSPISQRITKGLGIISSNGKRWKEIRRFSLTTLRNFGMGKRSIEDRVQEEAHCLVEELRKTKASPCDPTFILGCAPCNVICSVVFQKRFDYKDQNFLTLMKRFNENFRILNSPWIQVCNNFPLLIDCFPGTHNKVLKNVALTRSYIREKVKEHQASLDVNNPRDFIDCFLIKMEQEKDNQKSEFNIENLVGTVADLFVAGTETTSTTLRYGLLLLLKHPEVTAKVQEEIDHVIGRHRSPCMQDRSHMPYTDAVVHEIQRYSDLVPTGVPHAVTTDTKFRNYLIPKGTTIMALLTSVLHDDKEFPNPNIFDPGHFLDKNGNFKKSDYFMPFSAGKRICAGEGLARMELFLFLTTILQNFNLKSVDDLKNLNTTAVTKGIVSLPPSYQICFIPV

Cytochrome P450 2C9 [3] = biological target: T2, Cytochrome P450 2C9 (Homo sapiens, UniProt P11712); assay: Drug metabolism assessed as human recombinant CYP2C9-mediated 6-Hydroxymethylexemestane formation at 10 uM after 10 mins by Michaelis-Menten saturation curve analysis; conditions: recombinant enzyme
Cytochrome P450 2C9 [4] = biological target: T2, Cytochrome P450 2C9; assay: Drug metabolism assessed as human recombinant CYP2C9-mediated 6-Hydroxymethylexemestane formation rate per pmol of enzyme at 10 uM after 10 mins
Cytochrome P450 2B6 [5] = biological target: T3, Cytochrome P450 2B6 (Homo sapiens, UniProt P20813); assay: Drug metabolism assessed as human recombinant CYP2B6-mediated 6-Hydroxymethylexemestane formation rate per pmol of enzyme at 10 uM after 10 mins
T3 sequence (P20813 whole entry): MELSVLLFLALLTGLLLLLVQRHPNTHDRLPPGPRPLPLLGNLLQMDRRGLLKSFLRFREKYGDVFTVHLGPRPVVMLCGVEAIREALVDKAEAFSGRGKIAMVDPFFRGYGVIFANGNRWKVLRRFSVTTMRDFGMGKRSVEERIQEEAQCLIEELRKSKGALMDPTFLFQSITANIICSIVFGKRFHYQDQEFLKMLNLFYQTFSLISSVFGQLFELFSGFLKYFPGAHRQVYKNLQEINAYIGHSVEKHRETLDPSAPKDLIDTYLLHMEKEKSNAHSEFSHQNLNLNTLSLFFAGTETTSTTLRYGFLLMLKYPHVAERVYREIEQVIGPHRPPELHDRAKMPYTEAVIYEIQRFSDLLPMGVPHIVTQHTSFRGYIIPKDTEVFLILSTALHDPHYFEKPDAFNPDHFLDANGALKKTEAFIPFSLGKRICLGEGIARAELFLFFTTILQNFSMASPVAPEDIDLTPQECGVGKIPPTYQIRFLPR

Cytochrome P450 2C8 [6] = biological target: T1, Cytochrome P450 2C8; assay: Drug metabolism assessed as human recombinant CYP2C8-mediated 6-Hydroxymethylexemestane formation at 10 uM after 10 mins by Michaelis-Menten saturation curve analysis; conditions: recombinant enzyme
Cytochrome P450 1A1 = biological target: T4, Cytochrome P450 1A1 (Homo sapiens, UniProt P04798); assay: Drug metabolism assessed as human recombinant CYP1A1-mediated 6-Hydroxymethylexemestane formation rate per pmol of enzyme at 10 uM after 10 mins
T4 sequence (P04798 whole entry): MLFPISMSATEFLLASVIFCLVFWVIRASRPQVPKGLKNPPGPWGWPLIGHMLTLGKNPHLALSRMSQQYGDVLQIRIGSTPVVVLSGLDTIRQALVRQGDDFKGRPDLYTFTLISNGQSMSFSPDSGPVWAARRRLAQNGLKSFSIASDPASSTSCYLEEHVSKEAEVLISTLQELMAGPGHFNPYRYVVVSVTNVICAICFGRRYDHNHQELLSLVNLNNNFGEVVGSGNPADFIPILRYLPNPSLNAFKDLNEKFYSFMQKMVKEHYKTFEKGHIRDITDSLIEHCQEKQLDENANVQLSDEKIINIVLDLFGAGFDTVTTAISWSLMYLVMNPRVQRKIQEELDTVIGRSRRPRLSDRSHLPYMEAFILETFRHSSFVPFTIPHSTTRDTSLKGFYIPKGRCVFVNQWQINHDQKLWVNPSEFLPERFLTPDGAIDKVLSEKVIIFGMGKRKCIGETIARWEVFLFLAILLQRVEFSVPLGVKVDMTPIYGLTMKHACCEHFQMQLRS

Liver microsome [7] = assay: Drug metabolism in human liver microsomes assessed as retention time treated with 300 uM of exemestane after 10 mins by HPLC with UV analysis
Liver microsome [8] = assay: Drug metabolism in human liver microsomes assessed as 6-hydroxymethylexemestane formation at 10 uM after 10 mins by LC-MS/MS analysis
Cytochrome P450 2C19 [9] = biological target: T5, Cytochrome P450 2C19 (Homo sapiens, UniProt P33261); assay: Drug metabolism assessed as human recombinant CYP2C19-mediated 6-Hydroxymethylexemestane formation rate per pmol of enzyme at 10 uM after 10 mins
Cytochrome P450 2B6 [10] = biological target: T3, Cytochrome P450 2B6; assay: Drug metabolism assessed as human recombinant CYP2B6-mediated 6-Hydroxymethylexemestane formation at 10 uM after 10 mins by Michaelis-Menten saturation curve analysis; conditions: recombinant enzyme
Cytochrome P450 2C19 [11] = biological target: T5, Cytochrome P450 2C19; assay: Drug metabolism assessed as human recombinant CYP2C19-mediated 6-Hydroxymethylexemestane formation at 10 uM after 10 mins by Michaelis-Menten saturation curve analysis; conditions: recombinant enzyme
Liver microsome [12] = assay: Drug metabolism in human liver microsomes assessed as 6-hydroxymethylexemestane formation after 10 mins by Michaelis-Menten saturation curve analysis
Cytochrome P450 2E1 = Cytochrome P450 2E1 (Homo sapiens, UniProt P05181); assay: Drug metabolism assessed as human recombinant CYP2E1-mediated 17-hydroexemestane and 6-Hydroxymethylexemestane formation assessed as inhibition of metabolite formation at 10 uM after 10 mins by Michaelis-Menten saturation curve analysis in presence of 50 uM diethylthiocarbamate; set-up: interact cpd dose 50 uM; conditions: recombinant enzyme
Liver microsome [13] = assay: Drug metabolism in human liver microsomes assessed as retention time at 300 uM after 10 mins by HPLC with UV analysis
Cytochrome P450 2B6 [14] = biological target: T3, Cytochrome P450 2B6; assay: Drug metabolism assessed as human recombinant CYP2B6-mediated 17-hydroexemestane and 6-Hydroxymethylexemestane formation assessed as inhibition of metabolite formation at 10 uM after 10 mins by Michaelis-Menten saturation curve analysis in presence of 5 uM thioTEPA; set-up: interact cpd dose 5 uM; conditions: recombinant enzyme

T2 sequence (P11712 whole entry): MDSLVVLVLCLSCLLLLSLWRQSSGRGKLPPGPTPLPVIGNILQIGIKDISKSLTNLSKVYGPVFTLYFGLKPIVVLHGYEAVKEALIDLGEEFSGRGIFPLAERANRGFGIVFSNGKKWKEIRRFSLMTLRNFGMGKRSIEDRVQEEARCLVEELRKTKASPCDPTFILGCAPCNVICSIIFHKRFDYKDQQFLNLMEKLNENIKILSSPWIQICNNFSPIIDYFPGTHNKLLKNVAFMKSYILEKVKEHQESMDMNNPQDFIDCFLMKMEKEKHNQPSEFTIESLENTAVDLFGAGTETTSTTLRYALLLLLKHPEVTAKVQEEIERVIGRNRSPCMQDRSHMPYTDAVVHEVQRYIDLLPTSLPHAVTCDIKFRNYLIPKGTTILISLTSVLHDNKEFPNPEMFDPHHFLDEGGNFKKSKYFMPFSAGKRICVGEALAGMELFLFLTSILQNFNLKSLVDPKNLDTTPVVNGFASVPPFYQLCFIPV
T5 sequence (P33261 whole entry): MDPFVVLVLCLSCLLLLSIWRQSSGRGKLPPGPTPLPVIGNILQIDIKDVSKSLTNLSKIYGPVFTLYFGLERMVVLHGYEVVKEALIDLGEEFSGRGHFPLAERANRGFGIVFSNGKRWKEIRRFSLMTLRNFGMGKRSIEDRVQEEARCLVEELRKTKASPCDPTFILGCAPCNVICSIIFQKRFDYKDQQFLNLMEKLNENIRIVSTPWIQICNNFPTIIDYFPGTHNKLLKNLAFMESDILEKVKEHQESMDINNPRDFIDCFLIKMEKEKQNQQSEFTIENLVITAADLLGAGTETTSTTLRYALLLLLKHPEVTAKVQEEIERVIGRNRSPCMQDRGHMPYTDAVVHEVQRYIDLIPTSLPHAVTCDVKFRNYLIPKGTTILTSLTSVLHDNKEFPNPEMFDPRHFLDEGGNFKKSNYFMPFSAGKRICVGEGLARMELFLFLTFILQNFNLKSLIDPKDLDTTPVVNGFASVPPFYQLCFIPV
Chain of Cytochrome P450 2E1 (P05181 whole entry): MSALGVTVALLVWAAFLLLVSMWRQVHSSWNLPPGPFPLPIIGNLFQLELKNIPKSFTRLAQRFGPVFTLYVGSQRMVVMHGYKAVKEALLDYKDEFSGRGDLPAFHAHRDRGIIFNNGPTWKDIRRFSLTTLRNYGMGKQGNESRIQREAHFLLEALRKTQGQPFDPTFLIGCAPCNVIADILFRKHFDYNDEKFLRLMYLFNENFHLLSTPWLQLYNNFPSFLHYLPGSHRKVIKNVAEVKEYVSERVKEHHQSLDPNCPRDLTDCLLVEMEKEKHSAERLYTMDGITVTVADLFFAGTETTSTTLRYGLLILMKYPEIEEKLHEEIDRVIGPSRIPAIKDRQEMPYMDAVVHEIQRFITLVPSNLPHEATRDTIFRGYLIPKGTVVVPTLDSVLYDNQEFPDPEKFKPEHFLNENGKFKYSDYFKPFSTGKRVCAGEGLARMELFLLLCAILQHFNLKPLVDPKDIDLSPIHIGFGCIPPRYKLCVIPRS
Chain of Cytochrome P450 3A4 (P08684 whole entry): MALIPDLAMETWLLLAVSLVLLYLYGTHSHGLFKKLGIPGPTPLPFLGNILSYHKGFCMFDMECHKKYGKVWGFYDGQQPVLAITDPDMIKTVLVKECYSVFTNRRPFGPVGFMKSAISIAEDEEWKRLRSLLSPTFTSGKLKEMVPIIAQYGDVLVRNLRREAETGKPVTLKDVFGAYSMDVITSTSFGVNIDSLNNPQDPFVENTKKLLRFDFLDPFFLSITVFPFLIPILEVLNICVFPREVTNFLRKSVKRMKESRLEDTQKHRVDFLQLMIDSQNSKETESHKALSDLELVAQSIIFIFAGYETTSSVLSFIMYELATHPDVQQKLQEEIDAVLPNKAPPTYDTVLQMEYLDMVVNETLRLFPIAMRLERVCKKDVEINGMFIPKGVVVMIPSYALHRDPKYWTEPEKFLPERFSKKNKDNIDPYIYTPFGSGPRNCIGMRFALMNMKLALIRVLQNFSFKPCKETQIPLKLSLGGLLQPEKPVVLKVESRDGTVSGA
Chain of Cytochrome P450 3A5 (P20815 whole entry): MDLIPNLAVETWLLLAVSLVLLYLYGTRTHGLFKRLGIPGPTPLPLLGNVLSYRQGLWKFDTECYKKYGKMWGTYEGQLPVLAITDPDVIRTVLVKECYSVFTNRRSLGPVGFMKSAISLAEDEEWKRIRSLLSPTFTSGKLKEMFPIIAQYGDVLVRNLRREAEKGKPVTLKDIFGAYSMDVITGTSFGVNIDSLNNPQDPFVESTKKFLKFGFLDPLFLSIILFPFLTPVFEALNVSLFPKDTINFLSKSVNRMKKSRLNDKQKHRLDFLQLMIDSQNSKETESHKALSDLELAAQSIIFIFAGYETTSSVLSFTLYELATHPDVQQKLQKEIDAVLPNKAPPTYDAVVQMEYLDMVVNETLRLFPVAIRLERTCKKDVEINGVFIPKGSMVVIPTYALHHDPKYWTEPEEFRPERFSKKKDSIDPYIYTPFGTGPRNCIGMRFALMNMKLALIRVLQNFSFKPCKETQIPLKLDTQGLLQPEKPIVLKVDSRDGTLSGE

`C#CC1(O)CC[C@H]2[C@@H]3CCC4=CC(=O)CC[C@@H]4[C@H]3CC[C@@]21CC` (stereo not given in full) [NORGESTREL] gave a Retention_time (Liver microsome [1]) of 20.2 min.

`C[C@]12C=CC(=O)C=C1C(CO)=C[C@@H]1[C@@H]2CC[C@]2(C)C(=O)CC[C@@H]12` was tested, and the Drug metabolism (Cytochrome P450 3A4) was 0.42 pmol/min, the Drug metabolism (Cytochrome P450 3A5) was 0.3 pmol/min and the Drug metabolism (Cytochrome P450 2C8 [2]) was “metabolite_detected”. The Drug metabolism (Cytochrome P450 2C9 [3]) was “metabolite_detected”, the Drug metabolism (Cytochrome P450 2C9 [4]) was “metabolite_detected” and the Drug metabolism (Cytochrome P450 2B6 [5]) was 0.1 pmol/min. The Drug metabolism (Cytochrome P450 2C8 [6]) was “metabolite_detected”, the Drug metabolism (Cytochrome P450 1A1) was “metabolite_detected” and the Retention_time (Liver microsome [7]) was 6.4 min. The “Vmax(app)” value (Liver microsome [8]) was 200.47 pmol/mg/min, the Drug metabolism (Cytochrome P450 2C19 [9]) was “metabolite_detected” and the “Vmax(app)” value (Cytochrome P450 2B6 [10]) was 1.93 pmol/mg/min. For the same molecule, the Km (Cytochrome P450 2B6 [10]; read-out: Km(app)) was 9 µM, the Drug metabolism (Cytochrome P450 2C19 [11]) was “metabolite_detected” and the “Vmax(app)” value (Liver microsome [12]) was 781.15 pmol/mg/min. The Km (Liver microsome [12]; read-out: Km(app)) was 37.1 µM.

`C=C1C[C@@H]2[C@H](CC[C@]3(C)C(=O)CC[C@@H]23)[C@@]2(C)C=CC(=O)C=C12` [EXEMESTANE] was tested, and the “inhibition (INH)” value (Cytochrome P450 2E1) was less than 20%, the Retention_time (Liver microsome [13]) was 15.6 min and the “inhibition (INH)” value (Cytochrome P450 2B6 [14]) was less than 20%.
